“Also recorded” adds a separate entry of the source. Like-named read-outs stand apart in the source and are kept apart here.

The target in data set [1] is T1, MRGPRX4 (Homo sapiens, UniProt Q96LA9). As to the kind of experiment: In vitro activation (agonism) of MRGPRX4, IP-One Gq HTRF assay. In kind it is cell-based. The procedure: Metabolites of heme (bilirubin, biliverdin, urobilin, urobilinogen, and stercobilin) were analyzed for in vitro activation of MRGPRX4. Cells were plated in a 384-well assay plate at 20,000 cells per well in 12 μL of Opti-MEM and kept in an incubator overnight. On the day of the assay, different agonists solubilized at 10 mM in 0.1% NaOH were added as a 10-point curve ([…] final top concentration with 1:3 serial dilutions) using a Tecan D300E digital dispenser. Agonists were diluted in assay buffer (final concentrations of 5.7 mM Tris-HCl, 43 mM NaCl, 50 mM LiCl, pH=8) and 2 μL of the appropriate agonist are added to each well. Plates were incubated in the dark for 1 h at 37° C. and then for 30 minutes at room temperature. IP-1 standards and HTRF detection reagents were added according to the IP-One—Gq Kit purchased from Cisbio (part number 62IPAPEJ) and incubated in the dark for 1 h at room temperature. The plate was read on a Molecular Devices SpectraMax iD5 plate reader. The HTRF ratio was calculated from the raw data and graphed using GraphPad Prism to calculate an IC50 value for each compound.
T1 sequence (Q96LA9 whole entry): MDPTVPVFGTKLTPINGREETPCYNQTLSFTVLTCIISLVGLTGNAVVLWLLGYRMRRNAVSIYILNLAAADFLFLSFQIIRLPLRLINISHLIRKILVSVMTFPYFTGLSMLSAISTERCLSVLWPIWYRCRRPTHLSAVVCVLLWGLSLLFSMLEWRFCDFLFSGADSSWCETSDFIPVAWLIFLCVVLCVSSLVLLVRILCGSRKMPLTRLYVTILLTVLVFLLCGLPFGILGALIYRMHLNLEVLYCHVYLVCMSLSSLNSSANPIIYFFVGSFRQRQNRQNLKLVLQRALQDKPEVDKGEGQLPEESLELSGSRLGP
(In general: Time-resolved FRET reads energy transfer from a long-lived donor to a nearby acceptor.)

The next data set relates to wild type mice. Put plainly: Mouse itch study, scratching bouts after subcutaneous pruritogen (SCLABA). The data set is classed as in vivo. As to conditions: SC injection on the neck, 30 min recording, FIG. 2A-2B. The procedure:
The ability of urobilin to induce itch in wild type mice was also tested. Typical mouse itch studies occurred as follows: C57B6J male mice were multiple-housed in a normal light cycle (6 am on; […]) under temperature and humidity-controlled conditions. The mice were handled and habituated to test chambers before testing, then placed in individual SCLABA test chambers. After 20 minutes, the mice were dosed PO with vehicle (saline, pH 7-8). After 30 minutes, the pruritogen of study ([…] in saline) or saline is given subcutaneously (SC) on the neck on the midline behind the ears. Video was recorded from the first pruritogen injection for 30 minutes using the SCLABA system. Scratching bouts were scored from SCLABA thumbnails using 12/45/85/100 waveform criteria. Group sizes were typically 9-10 animals per group.

Data set [2] concerns the target T1, MRGPRX4. As to the kind of experiment: Agonism of MRGPRX4 by bilirubin and urobilin samples after 24 h storage. In kind it is cell-based. As to conditions: 24 h at room temperature under blue light; FIG. 4B.
Description: Samples were evaluated after 24 hours and the percent remaining of urobilin and bilirubin, relative to a time zero standard, were determined by measurement of the degradation of the analyte contained in the samples as determined by tandem mass spectroscopy (LC MS/MS). The samples (at 24 h) were also evaluated for their ability to agonize MRGPRX4.
The target of data set [3] is T1, MRGPRX4. As to the kind of experiment: MRGPR X4 antagonist activity, IP-One Gq HTRF assay in stably transfected HEK cells (versus agonist bilirubin, deoxycholic acid, conjugated bilirubin, urobilin, obeticholic acid or BAR502). Details: expressed in transfected cells; host or cells: HEK cells, stably transfected. In kind it is cell-based. In short, it runs like this:
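Stably transfected HEK cells expressing human MRGPR X4, seeded overnight, given compounds as 10-point 1:3 curves from 10 uM final top, incubated 1 h at 37° C then 30 min at room temperature. IP-1 measured by IP-One Gq HTRF. IC50 derived from the HTRF ratio.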

Data set [4] can be described thus: Mouse pharmacokinetics study, 50 mg/kg oral gavage, plasma LC-MS/MS. In kind it is in vivo. The note with it: male C57BL/6 mice, non-fasted. As for the experimental part:
Compounds were formulated in 5% DMSO, 5% Solutol, and […] phosphate buffered saline at a concentration of 5 mg/mL, and typically appeared as a fine homogenous suspension. Male C57BL/6 mice (n=3/compound) were administered a 50 mg/kg dose of each compound by oral gavage under a non-fasted condition. Blood samples were collected via the saphenous vein onto K2-EDTA at 0.25, 0.5, 1, 2, 4, 8 and 24 hours after dosing, and plasma was prepared and stored at […] until analysis. Plasma sample preparation for analysis was done by protein precipitation using acetonitrile (including Celecoxib as an internal standard) followed by centrifugation. Compound concentrations were determined in extracted plasma using LC-MS/MS relative to an 8 point standard curve covering the 1 to 3000 ng/mL range. Non-compartmental analysis using Phoenix WinNonlin was used to estimate pharmacokinetic parameters including area under the curve, clearance, and half-life. The administered dose was confirmed by analysis of residual dosing material by UPLC-UV relative to a single point calibration sample.

The mark [5] stands for this setting: versus 10 μM Bilirubin agonist, HEK cells expressing human MRGPR X4, read-out: MRGPR4 Antagonist Activity.
Where [6] appears, read: versus 10 μM Bilirubin agonist, read-out: IC50 (Bilirubin agonist).
[7] abbreviates: versus 20 μM deoxycholic acid, read-out: IC50 (Deoxycholic Acid agonist).
[8] abbreviates: versus 20 μM obeticholic acid, read-out: IC50 (Obeticholic Acid Agonist).
Setting [9] is: versus 50 μM urobilin, read-out: IC50 (Urobilin Agonist).
Where [10] appears, read: versus 100 μM conjugated bilirubin, read-out: IC50 (Conjugated Bilirubin Agonist).

For `CC[C@H]1[C@@H](O)[C@@H]2[C@H](CC[C@]3(C)[C@@H]([C@H](C)CCO)CC[C@@H]23)[C@@]2(C)CC[C@@H](O)C[C@@H]12` [BAR502], the EC50 on MRGPRX4 [1] (read-out: agonist activity against MRGPRX4) worked out at 5700 nM.

Consider `CCC1=C(C)C(CC2=N/C(=C\c3[nH]c(CC4NC(=O)C(C)=C4CC)c(C)c3CCC(=O)O)C(CCC(=O)O)=C2C)NC1=O` (stereo not shown) [Urobilin, urobilin], for which the “efficacy at activating MRGPRX4 relative to bilirubin” value at MRGPRX4 [1] (FIG. 1, compared with bilirubin) is recorded as “at least 10 fold”. For the same molecule, in the data set on wild type mice, the “induction of scratch response in mice” value was “induced scratch response in mice in a dose dependent manner; also recorded: potent inducer of scratch response in mice”. In addition, the “agonist activity on MRGPRX4 after storage, relative to the other three groups” value on MRGPRX4 [2] was “very little agonist activity”.

Regarding `O=C(O)c1cc(COc2ccc(C(F)(F)F)cc2Cl)ccc1F` [Compound 1-85, 5-((2-chloro-4-(trifluoromethyl)phenoxy)methyl)-2-fluorobenzoic acid], the IC50 was < 100 nM at MRGPRX4 [3] (setting [5]); 20 nM on MRGPRX4 [3] (setting [6]); 30 nM at MRGPRX4 [3] (setting [7]); 15 nM at MRGPRX4 [3] (setting [8]); 41 nM on MRGPRX4 [3] (setting [9]); 29 nM on MRGPRX4 [3] (setting [10]). In data set [4], this molecule displayed an AUC of 1069 μMxhr. Also, in data set [4], the Cmax came to 239 µM. This molecule yielded a T-1/2 in data set [4] of 4.7 h.

Regarding `O=C(O)c1cc(F)cc(COc2ccc(C(F)(F)F)cc2Cl)c1` [Compound 1-65, 3-((2-chloro-4-(trifluoromethyl)phenoxy)methyl)-5-fluorobenzoic acid], the IC50 was 13 nM at MRGPRX4 [3] (read-out: IC50 (10 μM BAR502) nM, MRGPRX4 antagonists versus 10 μM BAR502 agonist); < 100 nM on MRGPRX4 [3] (setting [5]); 9 nM on MRGPRX4 [3] (setting [6]); 28 nM at MRGPRX4 [3] (setting [7]); 23 nM at MRGPRX4 [3] (setting [8]); 21 nM on MRGPRX4 [3] (setting [9]). The IC50 at MRGPRX4 [3] (setting [10]) stood at 17 nM. This molecule also came in with an AUC in data set [4] of 1037 μMxhr. This molecule also came in with a Cmax in data set [4] of 220 µM. The T-1/2 in data set [4] came out at 4.8 h.

`O=C(O)c1cccc(COc2ccc(Cl)cc2Cl)n1` [Compound 1-115]: the IC50 on MRGPRX4 [3] (setting [5]) is < 100 nM; on MRGPRX4 [3] (setting [6]), 81 nM; at MRGPRX4 [3] (setting [7]), 230 nM; at MRGPRX4 [3] (setting [8]), 47 nM; on MRGPRX4 [3] (setting [10]), 180 nM. The same molecule displayed an AUC in data set [4] of 1206 μMxhr. Also, the Cmax in data set [4] worked out at 306 µM. Moreover, the T-1/2 in data set [4] was 3.0 h.

Broadly, the Cmax is the peak of the concentration-time curve.
